Values joined by “and” are separate entries in the source; they are usually repeats but may differ in a detail not shown here. Identical values can stand only once.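 The compound was tested at five concentrations on cells cultured in 96-well plates, with a 48-hour exposure period. GI50 marks 50% less growth. TGI: concentration producing complete growth inhibition.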 Bounds are passed on as bounds.

Among the data in PubChem BioAssay (NCI) are GI50 and TGI values, retold here.

Holding throughout (experiment): NCI anticancer screen, dose series, 48 h
Assay [1] deals with PC-3 prostate.
Assay [2] deals with T-47D breast.
The test system of assay [3] is MALME-3M melanoma.
Assay [4] relates to SF-295 CNS.
Assay [5] deals with 786-0 renal.
Assay [6] deals with SR leukemia.
In assay [7] the test system is COLO 205 colon.
The test system of assay [8] is UACC-62 melanoma.

For the molecule `COc1ccc(C(=O)/C=C/c2ccc(C)cc2)cc1OC`, the GI50 in assay [1] is 15.4 µM; in assay [2], 3.05 µM; in assay [3] it was 15.9 µM; in assay [4], 12.1 µM; in assay [5], 15.4 µM; in assay [6], 2.4 µM. For the same molecule, in assay [7], the GI50 was 10.1 µM. In addition, the TGI was found to be 32.4 µM in assay [1]; 15.8 µM in assay [2]; 36 µM in assay [3]; 28.4 µM in assay [4]; 28.7 µM in assay [5]; 6.83 µM in assay [6]. In assay [7], this molecule registered a TGI of 21.6 µM.

With `C=C(c1ccc2nc(NC(=O)OC)[nH]c2c1)c1cccs1`, the TGI is over 100 µM in assay [1]; over 100 µM in assay [3]; over 100 µM in assay [8]; 0.934 µM in assay [4]; over 100 µM in assay [5]; 1.11 µM in assay [6]. The TGI in assay [7] was over 100 µM.

With `Cc1ccc(S(=O)(=O)NC(=O)C2C(=O)CC3(CCCCC3)CC2=O)cc1`, the TGI is 81.3 µM in assay [1]; over 100 µM in assay [2]; 83.8 µM in assay [8]; 67.1 µM in assay [4]; over 100 µM in assay [5]; 32.2 µM in assay [7].

Consider `Oc1[nH]c2ccccc2c1N=Nc1ccccn1`, for which the TGI in assay [1] was over 100 µM; in assay [2] it was over 100 µM; in assay [8] it was over 100 µM; in assay [4] it was over 100 µM; in assay [5], 29.6 µM; in assay [6], 47.6 µM. This molecule displayed a TGI in assay [7] of over 100 µM.

For the molecule `CCOC(=O)N1CCN(c2nc(Nc3cc(C)[nH]n3)c3ccccc3n2)CC1`, the GI50 was 4.83 µM in assay [2]; 21.9 µM in assay [3]; 5.98 µM in assay [4]; 1.95 µM in assay [5]; 0.446 µM in assay [6]; 1.83 µM in assay [7]. Further, the TGI in assay [2] is 70.7 µM; in assay [3], 62.2 µM; in assay [4] it was over 100 µM; in assay [5] it was 14.2 µM; in assay [6], 20.2 µM; in assay [7] it was 5.41 µM.

Take `C=C1C(=O)O[C@H]2[C@H]1CC/C(COC(=O)CSCCSCC(=O)OC/C1=C/CC[C@@]3(C)O[C@H]3[C@H]3OC(=O)C(=C)[C@@H]3CC1)=C\CC[C@@]1(C)O[C@@H]21`: the GI50 in assay [1] was 2.5 µM; in assay [2], 1.63 µM; in assay [3], 1.48 µM; in assay [8], 2.31 µM; in assay [4], 2.29 µM; in assay [5], 1.64 µM. The GI50 in assay [7] is 1.48 µM. Further, the TGI in assay [1] came to 8.33 µM; in assay [2], 3.5 µM; in assay [3], 3.33 µM; in assay [8], 5.16 µM; in assay [4], 5.76 µM; in assay [5] it was 3.27 µM. In assay [7], the TGI amounted to 2.95 µM.

Take `COc1cccc(-c2cc(=O)c3cc(OC)ccc3[nH]2)c1`: the GI50 in assay [1] was 0.112 µM; in assay [3] it was 0.0479 µM; in assay [8], 0.0459 µM; in assay [4], 0.292 µM; in assay [5], 0.15 µM; in assay [7], 0.0741 µM. Also, the TGI in assay [1] was over 100 µM; in assay [3] it was over 100 µM; in assay [8], over 100 µM; in assay [5] it was 65.3 µM; in assay [6], 0.664 µM; in assay [7] it was 0.48 µM and 0.411 µM.

On to `COc1ccc2c(c1)C(=O)c1c-2n(CCCN=[N+]=[N-])c(=O)c2cc(OC)c(OC)cc12`, for which the GI50 in assay [1] is 50 µM; in assay [2], over 100 µM; in assay [3] it was 66.4 µM; in assay [8], 21 µM; in assay [4] it was 18 µM; in assay [5], 26.7 µM. Further, in assay [7], the GI50 is over 100 µM. Besides, the TGI in assay [1] is over 100 µM; in assay [2] it was over 100 µM; in assay [3], over 100 µM; in assay [8], over 100 µM; in assay [4], over 100 µM; in assay [5], 89.5 µM. For the same molecule, the TGI in assay [7] was over 100 µM.

As for `O=c1nc(/C=C/c2ccccc2Cl)cc2n1CCN2CCO`, the TGI in assay [3], in assay [8], in assay [4], in assay [5], in assay [6] and in assay [7] was over 100 µM each time.

`COc1cc(OC)cc(N(CCNC(C)C)c2ccc3ncc(-c4cnn(C)c4)nc3c2)c1`: the GI50 in assay [1] is 6.54 µM; in assay [2] it was 12.7 µM; in assay [3], 6.48 µM; in assay [8], 6.76 µM; in assay [4] it was 10.8 µM; in assay [5], 2.9 µM. Moreover, the GI50 in assay [7] was 4.64 µM. The TGI amounted to 23.2 µM in assay [1]; 30.3 µM in assay [2]; 21.5 µM in assay [3]; 21.5 µM in assay [8]; 25.1 µM in assay [4]; 13.6 µM in assay [5]. For the same molecule, in assay [7], the TGI was 18.5 µM.

In the case of `CCCCCC(=O)C(C)C1=Nc2nnc(CCCCCCCc3nnc4n3C(=O)C(C(C)C(=O)CCCCC)=N4)n2C1=O` (stereo not drawn), the TGI in assay [3], in assay [8], in assay [4], in assay [5], in assay [6] and in assay [7] was over 100 µM in each case.

On to `Cc1cc(=O)oc2cc(OC(=O)N(C)C)c(Cl)cc12`, for which the TGI is over 100 µM in assay [1]; over 100 µM in assay [2]; over 100 µM in assay [3]; 83.2 µM in assay [8]; over 100 µM in assay [5]; over 100 µM in assay [6]. In assay [7], this molecule registered a TGI of over 100 µM.

On to `CCC[CH2][Sn]([CH2]CCC)([CH2]CCC)[O]c1ccc(Cl)cc1Cl`, for which the GI50 in assay [1] is 0.15 µM; in assay [2] it was 0.128 µM; in assay [3] it was 0.0973 µM; in assay [8], 0.162 µM; in assay [4], 0.15 µM; in assay [5] it was 0.135 µM. Besides, in assay [7], the GI50 is 0.16 µM. Besides, the TGI in assay [1] worked out at 0.443 µM; in assay [2], 0.307 µM; in assay [3], 0.238 µM; in assay [8] it was 0.357 µM; in assay [4], 0.307 µM; in assay [5] it was 0.266 µM. In assay [7], this molecule came in with a TGI of 0.31 µM.
